Results reported in patent publication US9422262B2, “Compounds and methods for treating diseases mediated by protease activated receptors” (The Broad Institute, Inc., priority 2010, dated 2016).
pIC50: −log10 of the molar value.

Legend:
[1] = test system: permeabilized platelets; experiment: GTP-γ-S induced P-selectin surface expression in permeabilized platelets; type: cell-based, human; settings: FIG. 1C
Description: (§1) To confirm the specificity of compound 1 for PAR1, platelets were incubated with compound 1 and subsequently activated with a variety of platelet agonists. P-selectin surface expression was monitored to detect platelet activation. […] In contrast, an IC50 for inhibition of other agonists was not reached even at concentrations >30-fold its IC50 for PAR1-mediated secretion. To further evaluate whether PAR1 is the target of compound 1, we tested the ability of the compound to inhibit Ca^2+ flux in HEK293 cells overexpressing recombinant PAR1.

[2] = test system: Gα12 signaling downstream of PAR1; experiment: PAR1-mediated transmembrane resistance (TER) in MDCK cells overexpressing Gα12; type: cell-based; settings: FIG. 3B
From the text: (§2) This pattern of inhibition is consistent with that of an allosteric inhibitor. […] This observation raised the possibility that compound 1 blocks PAR1 signaling through Gαq (which mediates platelet aggregation downstream of PAR1), but not Gα12/13 (which mediates shape change downstream of PAR1). A previously identified PAR1 inhibitor, 3,5-difluoro aminoisoxazole (3,5-DFAI), inhibited both shape change and aggregation. Shape change that occurred in the presence of compound 1 was blocked by the Rho kinase inhibitor Y27632, confirming participation of Rho kinase downstream of Gα12/13 in compound-1-resistance shape change (FIG. 3A). […] PAR1-mediated decrease in TER in these cells is dependent on Gα12. […] In contrast, 3,5-DFAI inhibited SFLLRN-mediated decrease in TER (FIG. 3B) and compound 1 inhibited Gαq-mediated Ca^2+ flux in these MDCK cells (FIG. 3C).

[3] = target: T1, PAR4 (Homo sapiens, UniProt Q96RI0); experiment: Platelet activation induced through PAR4; type: cell-based; settings: FIG. 1A
T1 construct: endogenous in cells; host or cells: platelets
T1 sequence (Q96RI0 18-385): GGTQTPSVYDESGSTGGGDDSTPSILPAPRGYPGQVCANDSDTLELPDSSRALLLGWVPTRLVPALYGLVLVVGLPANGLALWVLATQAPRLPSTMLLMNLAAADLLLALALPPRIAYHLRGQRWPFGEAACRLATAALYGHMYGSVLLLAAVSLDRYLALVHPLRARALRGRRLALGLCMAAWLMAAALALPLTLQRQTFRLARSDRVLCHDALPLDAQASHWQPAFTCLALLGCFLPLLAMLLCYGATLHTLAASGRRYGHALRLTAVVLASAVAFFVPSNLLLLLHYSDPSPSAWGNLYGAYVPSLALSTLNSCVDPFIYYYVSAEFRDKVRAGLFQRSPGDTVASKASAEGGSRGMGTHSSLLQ
Description: as §1

[4] = Stability in mouse plasma; type: in vitro ADME
From the text: (§3) Since there are also situations in which longer term anticoagulation is desired, we performed further studies in the thrombus formation model to assess analogs of compound 1 that may have a more long-lived effect. […] This instability in mouse plasma may have contributed to its short half-life of efficacy in vivo.

[5] = Stability in human plasma; type: in vitro ADME
From the text: as §3

[6] = test system: Gαq-mediated Ca2+ flux; experiment: SFLLRN-induced Gαq-mediated Ca2+ flux in MDCK cells; type: cell-based; settings: FIG. 3C
From the text: as §2

[7] = test system: platelets; experiment: PMA- or Ca2+ ionophore-induced platelet activation (P-selectin, flow cytometry); type: cell-based, human; settings: washed platelets, 6 point dose curve
Description: (§4) For these assays, the probe is incubated with washed platelets obtained from individual donors in a 6 point dose curve. Platelets are subsequently stimulated with either PMA or Ca2+ ionophore. After 15 minutes, phycoerythrin-labeled anti-P-selectin antibody (BD Biosciences) is added to the incubation mixture. Following a 20-minute incubation, a sample is analyzed by flow cytometry for staining of P-selectin.

[8] = test system: platelets; experiment: P-selectin surface expression on platelets activated with other platelet agonists; type: cell-based, human; settings: FIG. 1A
Description: as §1

[9] = target: T2, PAR1 (Homo sapiens, UniProt P25116); experiment: P-selectin surface expression on washed platelets stimulated with SFLLRN (flow cytometry); type: cell-based; design: endogenous in cells; host or cells: platelets (platelet-rich plasma; washed platelets from individual donors)
T2 sequence (P25116 22-425): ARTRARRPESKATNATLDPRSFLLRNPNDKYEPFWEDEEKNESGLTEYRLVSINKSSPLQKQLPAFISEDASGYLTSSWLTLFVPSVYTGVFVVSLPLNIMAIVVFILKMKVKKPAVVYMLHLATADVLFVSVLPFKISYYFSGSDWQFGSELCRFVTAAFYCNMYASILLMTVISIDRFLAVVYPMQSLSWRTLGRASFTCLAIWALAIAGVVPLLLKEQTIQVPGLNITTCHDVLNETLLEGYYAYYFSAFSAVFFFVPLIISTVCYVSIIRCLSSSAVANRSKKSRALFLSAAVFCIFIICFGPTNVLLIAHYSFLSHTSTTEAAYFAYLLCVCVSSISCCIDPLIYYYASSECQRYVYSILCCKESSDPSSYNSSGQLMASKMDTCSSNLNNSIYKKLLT
Description: as §4, with “this assay,” for “these assays,”, “donors.” for “donors in a 6 point dose curve.”, “5 μM SFLLRN.” for “either PMA or Ca2+ ionophore.”
P-selectin surface expression was monitored to detect platelet activation.

[10] = target: T3, mouse PAR4 (Mus musculus, UniProt O88634); experiment: PAR4-mediated aggregation of mouse platelets; type: cell-based; settings: FIG. 4A
T3 construct: Aggregation studies using mouse platelets; endogenous in cells; host or cells: mouse platelets
T3 sequence (O88634 17-396): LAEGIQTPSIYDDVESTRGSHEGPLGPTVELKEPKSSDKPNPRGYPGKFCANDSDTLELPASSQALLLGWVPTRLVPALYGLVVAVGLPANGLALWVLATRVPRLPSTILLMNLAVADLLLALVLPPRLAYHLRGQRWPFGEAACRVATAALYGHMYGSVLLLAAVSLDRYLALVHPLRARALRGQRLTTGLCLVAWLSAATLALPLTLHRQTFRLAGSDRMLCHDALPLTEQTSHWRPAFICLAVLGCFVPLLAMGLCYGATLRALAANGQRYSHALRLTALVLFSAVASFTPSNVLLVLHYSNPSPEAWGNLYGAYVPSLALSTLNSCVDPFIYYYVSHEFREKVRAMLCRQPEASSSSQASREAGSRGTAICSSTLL

[11] = target: T2, PAR1; experiment: PAR1-mediated platelet aggregation and shape change; type: cell-based; design: endogenous in cells; host or cells: platelets (platelet-rich plasma; washed platelets from individual donors); settings: FIG. 3A
From the text: as §2

CCCC(=O)Nc1cccc(NC(=O)c2ccccc2Br)c1 [Compound 1]
P-selectin surface expression induced by GTP-γ-S [1]: fails to inhibit | PAR1-mediated (SFLLRN) change in TER [2]: failed to inhibit | platelet activation through PAR4 [3]: without inhibiting | remaining after 5 hour incubation in mouse plasma [4]: 1.7% | stability in human plasma [5]: good stability | Gαq-mediated Ca2+ flux [6]: inhibited | effect on Ca2+ ionophore-induced activation of platelets [7]: did not show any effect | effect on PMA-induced activation of platelets [7]: did not show any effect | concentration tested without reaching an IC50 for other agonists, relative to IC50 for PAR1-mediated secretion [8]: > 30 fold | IC50 for inhibition of other agonists ([8]; P-selectin surface expression): not reached | inhibition of the expression of P-selectin ([9]; 1 μM compound, washed platelets, activation with 5 μM SFLLRN): 90% | pIC50 ([9]; FIG. 1A, read-out: IC50, activation mediated through PAR1 (P-selectin surface expression)): ~6.52 | pattern of inhibition of PAR1-mediated platelet activation ([9]; varying concentrations of compound and SFLLRN, FIG. 2): non-competitive inhibition | PAR4-mediated aggregation of mouse platelets [10]: inhibits | PAR1-mediated platelet aggregation [11]: inhibited | PAR1-mediated platelet shape change [11]: failed to inhibit
